According to patent US8969554B2, “6-acyl-1,2,4-triazine-3,5-dione derivative and herbicides” (Kumiai Chemical Industry Co., Ltd., priority 2010, dated 2015):

Experiments:
Type in all cases: in vivo
Echinochloa crus-galli [1] = test: Herbicidal activity by field foliage treatment (Test example 3); design: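 index 0 to 10 in 10% steps of herbicidal effect with 10 meaning complete death and 0 below 10%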; conditions: 1000 g effective component per hectare, day 14 after the treatment
Method in brief: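 Herbicidal effect was rated on day 14 following a foliar spray of 1000 g active ingredient per hectare, applied as water-diluted wettable powder at 1000 L/ha. Plants had been raised for 2 weeks in field soil under greenhouse conditions before spraying.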

foxtail = test: Herbicidal activity by field soil treatment (Test example 2); conditions: 1000 g effective component per hectare, day 21 after the treatment;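 also: index 0 to 10 in 10% steps of herbicidal effect with 10 meaning complete death and 0 below 10%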
Method: [table] Test for Determining Herbicidal Activity by Field Soil Treatment A 80 cm^2 wide plastic pot was filled with a field soil and seeds of each of Echinochloa crus-galli, foxtail, Indian millet, and A. retroflexus were sowed and then covered with soil. The wettable powder produced with reference to the Formulation example 1 was diluted water, and applied on the soil surface by using a small sprayer in an amount of 1000 liters per hectare so that the effective component is 1000 g per hectare. After that, the plants were cultivated in a greenhouse, and on day 21 after the treatment, evaluation was made by the criteria described in Table 72 for determining the herbicidal effects.

A. retroflexus [2] = test: Herbicidal activity by field foliage treatment (Test example 3); design: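 index 0 to 10 in 10% steps of herbicidal effect with 10 meaning complete death and 0 below 10%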; conditions: 1000 g effective component per hectare, day 14 after the treatment
Method in brief: (§1)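 Seeds sown in field soil and kept 2 weeks in a greenhouse; foliage of the whole plant then sprayed with diluted wettable powder (1000 L/ha, 1000 g a.i./ha); plants returned to the greenhouse and scored for herbicidal effect on day 14.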

Indian millet [3] = test: as above; design: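 index 0 to 10 in 10% steps of herbicidal effect with 10 meaning complete death and 0 below 10%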; conditions: 1000 g effective component per hectare, day 14 after the treatment
Method in brief: as §1

Indian millet [4] = test: Herbicidal activity by field soil treatment (Test example 2); design: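 index 0 to 10 in 10% steps of herbicidal effect with 10 meaning complete death and 0 below 10%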; conditions: 1000 g effective component per hectare, day 21 after the treatment
Method in brief: (§2)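 Field soil filled 80 cm^2 pots; seeds were sown, covered, and the soil surface treated with a small sprayer. Dose: 1000 g/ha of active component from a water-diluted wettable powder, applied in 1000 L/ha. Greenhouse cultivation followed, with evaluation at day 21.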

Echinochloa crus-galli [5] = test: as above; design: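 index 0 to 10 in 10% steps of herbicidal effect with 10 meaning complete death and 0 below 10%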; conditions: 1000 g effective component per hectare, day 21 after the treatment
Method in brief: as §2

Echinochloa oryzicola = test: Herbicidal activity by paddy field soil treatment (Test Example 1); design: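 index 0 to 10 in 10% steps of herbicidal effect with 10 meaning complete death and 0 below 10%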; conditions: 1000 g of effective component per hectare, evaluated on day 21 after the treatment, criteria of Table 72
Method in brief: (§3)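 Paddy soil was watered and puddled, seeded, then flooded to 3 cm. One day later the formulation, diluted with water, went onto the water surface at 1000 g/ha of active ingredient. After 21 days in the greenhouse, effects were scored.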

Scirpus juncoides Rocxb. = test: as above; design: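 index 0 to 10 in 10% steps of herbicidal effect with 10 meaning complete death and 0 below 10%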; conditions: applied on water surface, 1000 g of effective component per hectare, day 21 after the treatment
Method in brief: as §3

Monochoria vaginalis = test: as above; design: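 index 0 to 10 in 10% steps of herbicidal effect with 10 meaning complete death and 0 below 10%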; conditions: 1000 g of effective component per hectare, evaluated on day 21 after the treatment, criteria of Table 72
Method in brief: as §3

A. retroflexus [6] = test: Herbicidal activity by field soil treatment (Test example 2); design: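 index 0 to 10 in 10% steps of herbicidal effect with 10 meaning complete death and 0 below 10%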; conditions: 1000 g effective component per hectare, day 21 after the treatment
Method in brief: as §2

Setaria viridis = test: Herbicidal activity by field foliage treatment (Test example 3); conditions: 1000 g effective component per hectare, day 14 after the treatment;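 also: index 0 to 10 in 10% steps of herbicidal effect with 10 meaning complete death and 0 below 10%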
Method: Test example 3 Test for Determining Herbicidal Activity by Field Foliage Treatment A 80 cm^2 wide plastic pot was filled with a field soil and seeds of each of Indian millet and A. retroflexus were sowed and then incubated for 2 weeks in a green house. The wettable powder produced with reference to the Formulation example 1 was diluted water, and applied from the air to entire body of the plant as foliage treatment by using a small sprayer in an amount of 1000 liters per hectare so that the effective component is 1000 g per hectare. After that, the plants were cultivated in a greenhouse, and on day 14 after the treatment, evaluation was made by the criteria described in Table 72 for determining the herbicidal effects.

Compound | herbicidal effect index, Echinochloa crus-galli (Echinochloa crus-galli [1]) | herbicidal effect index, Setaria viridis (foxtail) | herbicidal effect index, Amaranthus retroflexus (A. retroflexus [2]) | herbicidal effect index, Abutilon theophrasti (Indian millet [3]) | herbicidal effect index, Abutilon theophrasti (Indian millet [4]) | herbicidal effect index, Echinochloa crus-galli (Echinochloa crus-galli [5]) | Herbicidal effects index number, Echinochloa oryzicola (Echinochloa oryzicola) | herbicidal effect index, S. juncoides Rocxb. (Scirpus juncoides Rocxb.) | Herbicidal effects index number, Monochoria vaginalis (Monochoria vaginalis) | herbicidal effect index, Amaranthus retroflexus (A. retroflexus [6]) | herbicidal effect index, Setaria viridis (Setaria viridis)
COc1cccc(OC)c1-n1c(=O)c(C(=O)C2=C(O)CCCC2=O)nn(C)c1=O [Compound I-98] | 7 | 7 | 8 | 9 | 7 | 7 |  |  |  |  | 
Cc1ccc(-n2c(=O)c(C(=O)C3=C(O)CCCC3=O)nn(C)c2=O)cc1C [I-87] | 9 | 6 | 10 | 9 | 9 | 9 | 9 | 10 | 10 | 9 | 
COc1ccc(-n2c(=O)c(C(=O)C3=C(O)CCCC3=O)nn(C)c2=O)cc1F [I-99] | 9 | 6 | 10 | 10 | 9 | 8 | 10 | 10 | 10 | 10 | 
Cn1nc(C(=O)C2=C(O)CCCC2=O)c(=O)n(-c2ccsc2)c1=O [I-199] | 10 |  | 9 | 9 | 10 | 9 | 9 | 9 | 8 | 10 | 8
Cn1nc(C(=O)C2=C(O)CCCC2=O)c(=O)n(-c2cccc(-c3ccccc3)c2)c1=O [I-270] | 9 | 7 | 10 | 9 |  | 8 | 8 | 8 | 8 | 10 | 
Cn1c(=O)c(C(=O)C2=C(O)CCCC2=O)nn(-c2ccccn2)c1=O [I-274] | 9 |  | 9 | 8 | 8 | 7 | 8 | 4 | 8 | 7 | 8
CCn1c(=O)c(C(=O)C2=C(O)CCCC2=O)nn(-c2ccccn2)c1=O [I-275] | 9 |  | 9 | 9 | 10 | 8 | 9 | 8 | 10 | 10 | 8
Cn1nc(C(=O)C2=C(O)CCCC2=O)c(=O)n(-c2cc(F)c(F)c(F)c2)c1=O [I-302] | 10 |  | 10 | 10 | 10 | 7 | 10 | 10 | 10 | 10 | 10
CON=C(C)Cn1c(=O)c(C(=O)C2=C(O)CCCC2=O)nn(C)c1=O [I-471] | 9 |  | 10 | 10 | 10 | 7 | 10 | 10 | 10 | 10 | 10
CC(C)N(c1ccccc1)n1c(=O)c(C(=O)C2=C(O)CCCC2=O)nn(C)c1=O [I-475] | 9 |  | 9 | 8 | 7 | 7 | 10 | 10 | 10 | 7 | 7
CC(Cn1c(=O)c(C(=O)C2=C(O)CCCC2=O)nn(C)c1=O)=NOC(C)C [I-479] | 9 |  | 10 | 9 | 10 | 9 | 10 | 10 | 10 | 10 | 7
CSc1c(Cl)cc(-n2c(=O)c(C(=O)O)nn(C)c2=O)cc1Cl [V-300] | 8 |  | 10 | 9 | 9 | 7 | 10 | 10 | 10 | 10 | 8
CON=C(C)Cn1c(=O)c(C(=O)O)nn(C)c1=O [V-365] | 9 |  | 10 | 10 | 10 | 7 | 10 | 10 | 10 | 10 | 10
CC(C)N(c1ccccc1)n1c(=O)c(C(=O)O)nn(C)c1=O [V-369] | 9 |  | 9 | 8 | 7 | 7 | 10 | 10 | 10 | 7 | 7
Cn1nc(C(=O)C2=C(O)C(C)(C)CCC2=O)c(=O)n(-c2ccccc2)c1=O [VI-5] | 10 |  | 10 | 10 | 10 | 8 | 10 | 10 | 10 | 10 | 10
